# Assay results from PubChem BioAssay (NCI).
#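 The concentration for 50% growth inhibition is given as GI50. At the TGI there is no net growth.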
# Key:
# Test in all cases: DTP human tumour cell line panel, 384-well format
# [1] = system: 786-0 renal
# [2] = system: A498 renal
# [3] = system: A549 NSCLC
# [4] = system: ACHN renal
# [5] = system: BT-549 breast
# [6] = system: CAKI-1 renal
# [7] = system: CCRF-CEM leukemia
# [8] = system: COLO 205 colon
# [9] = system: DU-145 prostate
# [10] = system: EKVX NSCLC
# [11] = system: HCC-2998 colon
# [12] = system: HCT-116 colon
# [13] = system: HCT-15 colon
# [14] = system: HL-60(TB) leukemia
# [15] = system: HOP-62 NSCLC
# [16] = system: HOP-92 NSCLC
# [17] = system: HS 578T breast
# [18] = system: HT29 colon
# [19] = system: IGROV1 ovarian
# [20] = system: K-562 leukemia
# [21] = system: KM12 colon
# [22] = system: LOX IMVI melanoma
# [23] = system: M14 melanoma
# [24] = system: MALME-3M melanoma
# [25] = system: MCF7 breast
# [26] = system: MDA-MB-231 breast
# [27] = system: MDA-MB-435 melanoma
# [28] = system: MDA-MB-468 breast
# [29] = system: MOLT-4 leukemia
# [30] = system: NCI-H226 lung
# [31] = system: NCI-H23 lung
# [32] = system: NCI-H322M lung
# [33] = system: NCI-H460 NSCLC
# [34] = system: NCI-H522 lung
# [35] = system: NCI/ADR-RES ovarian
# [36] = system: OVCAR-3 ovarian
# [37] = system: OVCAR-4 ovarian
# [38] = system: OVCAR-8 ovarian
# [39] = system: PC-3 prostate
# [40] = system: RPMI-8226 leukemia
# [41] = system: RXF 393 renal
# [42] = system: SF-268 CNS
# [43] = system: SF-295 CNS
# [44] = system: SF-539 CNS
# [45] = system: SK-MEL-28 melanoma
# [46] = system: SK-MEL-5 melanoma
# [47] = system: SK-OV-3 ovarian
# [48] = system: SN12C renal
# [49] = system: SNB-19 CNS
# [50] = system: SNB-75 CNS
# [51] = system: SW-620 colon
# [52] = system: T-47D breast
# [53] = system: TK-10 renal
# [54] = system: U251 glioblastoma
# [55] = system: UACC-257 melanoma
# [56] = system: UACC-62 melanoma
# [57] = system: UO-31 renal
structure (smiles),measurement,setting,value
C[C@H](Nc1ccc2c(c1)OCCn1cc(N3C(=O)OC[C@H]3C(F)F)nc1-2)C(N)=O,GI50,[1],40.5 µM
same,TGI,[1],> 100 µM
same,GI50,[2],15.2 µM
same,TGI,[2],> 100 µM
same,GI50,[3],12.7 µM
same,TGI,[3],> 100 µM
same,GI50,[4],15.2 µM
same,TGI,[4],> 100 µM
same,GI50,[5],14.5 µM
same,TGI,[5],> 100 µM
same,GI50,[6],3.11 µM
same,TGI,[6],46.3 µM
same,GI50,[7],5.71 µM
same,TGI,[7],> 100 µM
same,GI50,[8],0.987 µM
same,TGI,[8],> 100 µM
same,GI50,[9],18 µM
same,TGI,[9],> 100 µM
same,GI50,[10],2.99 µM
same,TGI,[10],46.7 µM
same,GI50,[11],5.68 µM
same,TGI,[11],> 100 µM
same,GI50,[12],25.9 µM
same,TGI,[12],> 100 µM
same,GI50,[13],0.73 µM
same,TGI,[13],> 100 µM
same,GI50,[14],0.156 µM
same,TGI,[14],3.3 µM
same,GI50,[15],34.6 µM
same,TGI,[15],> 100 µM
same,GI50,[16],2.2 µM
same,TGI,[16],> 100 µM
same,GI50,[17],6.24 µM
same,TGI,[17],48.4 µM
same,GI50,[18],0.289 µM
same,TGI,[18],> 100 µM
same,GI50,[19],0.0195 µM
same,TGI,[19],0.141 µM
same,GI50,[20],> 100 µM
same,TGI,[20],> 100 µM
same,GI50,[21],19.5 µM
same,TGI,[21],54.2 µM
same,GI50,[22],12.5 µM
same,TGI,[22],43.9 µM
same,GI50,[23],> 100 µM
same,TGI,[23],> 100 µM
same,GI50,[24],5.85 µM
same,TGI,[24],> 100 µM
same,GI50,[25],0.039 µM
same,TGI,[25],> 100 µM
same,GI50,[26],25.9 µM
same,TGI,[26],> 100 µM
same,GI50,[27],58.1 µM
same,TGI,[27],> 100 µM
same,GI50,[28],1.57 µM
same,TGI,[28],10.9 µM
same,GI50,[29],1.07 µM
same,TGI,[29],10.6 µM
same,GI50,[30],38.5 µM
same,TGI,[30],> 100 µM
same,GI50,[31],21.8 µM
same,TGI,[31],> 100 µM
same,GI50,[32],2.85 µM
same,TGI,[32],57.3 µM
same,GI50,[33],0.802 µM
same,TGI,[33],> 100 µM
same,GI50,[34],19 µM
same,TGI,[34],> 100 µM
same,GI50,[35],> 100 µM
same,TGI,[35],> 100 µM
same,GI50,[36],3.27 µM
same,TGI,[36],21.7 µM
same,GI50,[37],43.8 µM
same,TGI,[37],> 100 µM
same,GI50,[38],27 µM
same,TGI,[38],> 100 µM
same,GI50,[39],3.82 µM
same,TGI,[39],> 100 µM
same,GI50,[40],16.1 µM
same,TGI,[40],31.7 µM
same,GI50,[41],15.9 µM
same,TGI,[41],71.4 µM
same,GI50,[42],24 µM
same,TGI,[42],> 100 µM
same,GI50,[43],14.6 µM
same,TGI,[43],> 100 µM
same,GI50,[44],17.6 µM
same,TGI,[44],> 100 µM
same,GI50,[45],7.96 µM
same,TGI,[45],> 100 µM
same,GI50,[46],43.4 µM
same,TGI,[46],> 100 µM
same,GI50,[47],0.049 µM
same,TGI,[47],> 100 µM
same,GI50,[48],5.74 µM
same,TGI,[48],> 100 µM
same,GI50,[49],85.3 µM
same,TGI,[49],> 100 µM
same,GI50,[50],3.2 µM
same,TGI,[50],> 100 µM
same,GI50,[51],95.4 µM
same,TGI,[51],> 100 µM
same,GI50,[52],0.0131 µM
same,TGI,[52],0.0728 µM
same,GI50,[53],4.03 µM
same,TGI,[53],> 100 µM
same,GI50,[54],75.8 µM
same,TGI,[54],> 100 µM
same,GI50,[55],> 100 µM
same,TGI,[55],> 100 µM
same,GI50,[56],5.64 µM
same,TGI,[56],> 100 µM
same,GI50,[57],6.24 µM
same,TGI,[57],> 100 µM
